The text below walks through data of publication PMC9944328 (Nature Communications, 2023).

The subject of assay [1] is acromegalic patients. To be noted: cited from earlier work. An excerpt:
Somatostatin receptors (SSTRs) are members of the G protein-coupled receptor (GPCR) superfamily and contain five subtypes (SSTR1–5). SSTRs, especially SSTR2, are expressed at high levels in NETs and have emerged as important biomarkers[4],[6]. SSTRs and their endogenous ligands, somatostatin (SST) peptides, exert important physiological regulation of neuroendocrine functions. […] However, the use of SST for disease treatment is li ... || SSTR2 transmits extracellular signals into cells through Gαi/o coupling and β-arrestin recruitment pathways. cAMP inhibition causes decreased hormone secretion and cell proliferation[13],[14], while the β-arrestin recruitment results in subsequent receptor internalization thus influence the cell membrane distribution level and desensitization of SSTR2, which may lead to drug resistance and poor clinical curative effect[15]–[18].

Assay [2] addresses SSTR2 mutants (Homo sapiens, UniProt P30874). Kind of assay: SSTRs Gi-mediated cAMP inhibition, GloSensor, HEK293, 5 μM forskolin, 15 min room temperature (SSTR2 mutants). Also noted: Best-fit Bottom, cAMP inhibition / Best-fit Top, cAMP inhibition / Span, cAMP inhibition / Bottom (best-fit value) / Top (best-fit value) / Span (best-fit value) / Span (best-fit) / Bottom (best-fit) / Top (best-fit) / Best-fit Bottom / Best-fit Top / Best-fit Span / Top / Span: scale not given here. It counts as cell-based. The gist of the method: (§1)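 HEK293 cells co-transfected with N-terminal HA/Flag-tagged full-length human SSTR (wild-type or mutant) plus GloSensor plasmid; after 24 h, cells in HBSS with luciferin were preincubated 40 min, then given 5 μM forskolin and ligands for 15 min at room temperature. Luminescence read; means of ≥3 independent experiments.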

Assay [3] concerns the target T1, SSTR2 mutants (Homo sapiens, UniProt P30874, I195A).
T1 construct: The human full-length SSTRs and mutants were cloned into the pcDNA3.1+ vector; expressed in transfected cells; host or cells: HEK293 (ATCC, CRL-1573)
Described as above. Format: cell-based. Also noted: Best-fit Bottom, cAMP inhibition / Best-fit Top, cAMP inhibition / Span, cAMP inhibition / Bottom (best-fit value) / Top (best-fit value) / Span (best-fit value) / Span (best-fit) / Bottom (best-fit) / Top (best-fit) / Best-fit Bottom / Best-fit Top / Best-fit Span / Top / Span: scale not given here. The note with it: I195A, best-fit, runs 1-3. In a few lines:
as §1

Assay [4] addresses T2, SSTR2 mutants (Homo sapiens, UniProt P30874, T194A).
T2 construct: The human full-length SSTRs and mutants were cloned into the pcDNA3.1+ vector; expressed in transfected cells; host or cells: HEK293 (ATCC, CRL-1573)
Described as above. It counts as cell-based. To be noted: T194A, best-fit, runs 1-3. Also noted: Best-fit Bottom, cAMP inhibition / Best-fit Top, cAMP inhibition / Span, cAMP inhibition / Bottom (best-fit value) / Top (best-fit value) / Span (best-fit value) / Span (best-fit) / Bottom (best-fit) / Top (best-fit) / Best-fit Bottom / Best-fit Top / Best-fit Span / Top / Span: scale not given here. The gist of the method: as §1

Assay [5] addresses T3, SSTR2 mutants (Homo sapiens, UniProt P30874, Y50A).
T3 construct: The human full-length SSTRs and mutants were cloned into the pcDNA3.1+ vector; expressed in transfected cells; host or cells: HEK293 (ATCC, CRL-1573)
The assay is described as above. Format: cell-based. Also noted: Best-fit Bottom, cAMP inhibition / Best-fit Top, cAMP inhibition / Span, cAMP inhibition / Bottom (best-fit value) / Top (best-fit value) / Span (best-fit value) / Span (best-fit) / Bottom (best-fit) / Top (best-fit) / Best-fit Bottom / Best-fit Top / Best-fit Span / Top / Span: scale not given here. The note with it: Y50A, best-fit, runs 1-3. The gist of the method:
as §1

In assay [6] the test system is SSTR1–5. Kind of assay: Gi signaling of SSTR1–5, cAMP inhibition, HEK293. Format: cell-based, human. To be noted: SSTR2 versus other SSTRs. The procedure:
The levels of the intracellular 3′, 5′-cyclic AMP (cAMP) were measured by the GloSensor cAMP assay (Promega) as described in the previous studies[28],[41] which has been widely used. The human full-length SSTRs and mutants were cloned into the pcDNA3.1+ vector with a HA signal sequence followed by a Flag tag at the N-terminus. […] Cells were then co-transfected with SSTR wild-type or mutants and GloSensor plasmids. After 24 h of transfection, the cells were dissociated with TrypLE™ Express Enzyme (1X) (Thermo Fisher Scientific) and collected by centrifugation at 500 × g for 5 min. Then the collected cells were suspended in Hank’s balanced salt solution [HBSS (Thermo Fisher Scientific)] supplemented with […] potassium salt solution (YEASEN), and then the suspension cells were seeded into 96-well plates with 90 μl/well. After incubating at room temperature for 40 min, 5 μM forskolin and ligands diluted in HBSS were added to each well and the plates were incubated at room temperature for 15 min. […] signals were measured using the Synergy H1 microplate reader (BioTek) and the data presented are means of at least three independent experiments.

Several values for one entry are separate records, joined by “and”; a condition that tells them apart may be missing. Equal values may be shown once. Entries after “also recorded” stand apart in the source; their conditions may differ.

Sequence of SSTR2 mutants (Homo sapiens, UniProt P30874) (P30874 whole entry Y205R): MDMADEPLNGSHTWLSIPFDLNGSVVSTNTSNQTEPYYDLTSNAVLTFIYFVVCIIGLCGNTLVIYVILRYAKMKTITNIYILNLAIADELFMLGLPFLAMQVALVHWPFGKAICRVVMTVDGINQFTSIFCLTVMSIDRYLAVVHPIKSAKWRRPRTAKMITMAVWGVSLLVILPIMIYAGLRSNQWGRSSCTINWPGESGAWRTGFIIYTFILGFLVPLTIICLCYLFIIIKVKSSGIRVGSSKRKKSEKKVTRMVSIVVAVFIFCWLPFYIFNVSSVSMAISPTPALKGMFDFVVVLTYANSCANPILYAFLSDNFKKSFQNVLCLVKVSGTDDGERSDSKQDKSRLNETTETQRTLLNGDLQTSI
T3 sequence (P30874 whole entry Y50A): as the sequence (P30874 whole entry Y205R) above, with Y50A, R205Y counted along it
T1 sequence (P30874 whole entry I195A): as the sequence (P30874 whole entry Y205R) above, with I195A, R205Y counted along it
T2 sequence (P30874 whole entry T194A): as the sequence (P30874 whole entry Y205R) above, with T194A, R205Y counted along it

As for `C[C@@H](O)[C@@H]1NC(=O)[C@H](CCCCN)NC(=O)[C@@H](Cc2c[nH]c3ccccc23)NC(=O)[C@H](Cc2ccccc2)NC(=O)[C@@H](NC(=O)[C@H](N)Cc2ccccc2)CSSC[C@@H](C(=O)N[C@H](CO)[C@@H](C)O)NC1=O` [octreotide], in assay [1], the “Acromegalic patients who do not respond well” value is reported as ~ 30% and the “SSTR2 expression level during administration” value is given as “down-regulated”.
Broadly, the EC50 is the concentration giving half of the maximal effect. Consider `N#Cc1cccc(-c2ccc3ncc(-c4cc(F)cc(F)c4)c(N4CCC(N)CC4)c3c2)c1O` [paltusotine], for which the EC50 was 0.324 nM in assay [2] (EC50, D295F, run 1); 0.205 nM in assay [2] (EC50, D295F, run 2); 1.56 nM in assay [2] (EC50, D295F, run 3); 0.735 nM in assay [2] (EC50, F294Y, run 1); 0.676 nM in assay [2] (EC50, F294Y, run 3); 0.344 nM in assay [2] (EC50, Y205R, run 1). Also, the EC50 in assay [2] (EC50, Y205R, run 2) was found to be 0.237 nM. For the same compound, the Span is 93.79 and 93.25 and 119.7 in assay [3]; 81 and 79.63 and 75.68 in assay [4]; 121 and 122.3 in assay [5]. The Top in assay [3] is 101.8 and 93.82 and 123; in assay [4] it was 82.51 and 80.87 and 82.26; in assay [5], 113.5 and 115.2 and 115.4. Besides, the Subtype selectivity result in assay [6] is “highly selective agonist of SSTR2 relative to other SSTR subtypes; also recorded: more potent selectivity for SSTR2; also recorded: higher selectivity and efficacy towards SSTR2 relative to other group 2 SSTRs”.
